PMC8571951, “An activity‐based bioprobe differentiates a novel small molecule inhibitor from a LOXL2 antibody and provides renewed promise for anti‐fibrotic therapeutic strategies” (Clinical and Translational Medicine, 2021)

Key:
Oral bioavailability = conditions: in vivo
LOXL2 = target: T1, LOXL2 (Rattus norvegicus, UniProt B5DF27); test: Ex vivo LOXL2 activity after oral dosing in rats (PXS-5878/Simoa); conditions: 30 mg/kg oral
T1 construct: from tissue; host or cells: rat plasma and lung
T1 sequence (B5DF27 26-776): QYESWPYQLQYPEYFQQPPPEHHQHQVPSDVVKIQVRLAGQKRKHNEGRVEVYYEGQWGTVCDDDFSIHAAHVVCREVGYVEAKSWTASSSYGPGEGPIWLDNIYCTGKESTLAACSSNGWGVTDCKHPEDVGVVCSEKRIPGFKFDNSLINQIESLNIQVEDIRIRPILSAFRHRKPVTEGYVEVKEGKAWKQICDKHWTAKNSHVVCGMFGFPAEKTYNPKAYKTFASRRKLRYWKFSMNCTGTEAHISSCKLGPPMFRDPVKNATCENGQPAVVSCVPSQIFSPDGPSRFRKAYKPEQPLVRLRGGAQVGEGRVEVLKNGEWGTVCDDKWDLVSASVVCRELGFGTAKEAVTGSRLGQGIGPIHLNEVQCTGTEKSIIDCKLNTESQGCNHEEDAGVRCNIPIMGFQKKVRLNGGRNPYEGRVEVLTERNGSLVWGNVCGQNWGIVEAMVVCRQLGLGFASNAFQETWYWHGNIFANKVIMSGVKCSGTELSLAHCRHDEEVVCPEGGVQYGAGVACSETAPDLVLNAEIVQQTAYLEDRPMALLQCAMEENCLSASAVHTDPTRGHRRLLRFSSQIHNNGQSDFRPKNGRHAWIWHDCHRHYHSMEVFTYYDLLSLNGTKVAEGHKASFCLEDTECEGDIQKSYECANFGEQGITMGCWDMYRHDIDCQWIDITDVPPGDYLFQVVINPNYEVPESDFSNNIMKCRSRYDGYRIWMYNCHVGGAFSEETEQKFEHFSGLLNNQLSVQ
Experimental: FIGURE 2 Characteristics of PXS‐5338 and inhibition of lysyl oxidase‐like 2 (LOXL2) enzymatic activity in vitro and in vivo. (A) Chemical structure of PXS‐5338. […] (B) Tissue levels of PXS‐5338 measured 1 and 4 h after a single oral dose of 30 mg/kg in the rat. […] Average data from three different animals. (C) Concentration‐dependent inhibition of native […] LOX and rh LOXL1‐4 in a standard Amplex Red assay with 30 min pre‐incubation; n ≥3 independent experiments, standard error of mean (SEM). (D) PXS‐5338 inhibits rh LOXL2 in a time‐dependent manner, with increasing potency observed upon longer incubation with the enzyme. LOXL2 activity data devised from Amplex Red assay using putrescine as substrate and varying pre‐incubation times; n ≥3 independent experiments, standard error of mean (SEM). […] AB0023 and the corresponding isotype control antibody GS834298 were kindly provided by Gilead. Concentration‐response curves for the pan‐LOX inhibitor BAPN and LOXL2‐selective inhibitor PXS‐5338 are included for comparison. Data represented as mean ± SD with n = 5/concentration. […] To enable translation of preclinical data into the clinic, human plasma was incubated with different concentrations of PXS‐5338 for 30 min and the PXS‐5878/Simoa® platform used to measure the residual activity. […]

## CC(C)c1c(Cc2ccc(S(C)(=O)=O)nc2)c2ncccc2n1C/C(F)=C/CN [PXS‐5338]
Oral bioavailability
  Oral bioavailability: good oral bioavailability
LOXL2; 4 h
  Inhibition of LOXL2 activity in the lung (as in plasma): almost complete inhibition
LOXL2; 24 h
  Inhibition of LOXL2 activity remaining: no inhibition remained
